Results as given in PMC6892585 (Bioorganic & medicinal chemistry, 2019).

System: Caco-2 cells

- permeability (Papp): ≤ 1 ×10⁻⁶ cm/s
Substance: Lucifer yellow [LY]
